This assay has as its target T1, MutSβ (Homo sapiens, UniProt P20585+P43246).
T1 construct: purchased AMRI
The assay is described as follows: MutSβ ADP Glo Assay. Format: biochemical. The note with it: 20nM MutSβ, 30nM CAG DNA, 25 µM ATP, 2 hours at room temperature. The method, then:
Biological Example A - MutSβ Assay
• MutSβ (supplied by AMRI) stored at -70°C • ADP Glo Kinase Assay Kit (Promega: V9102) stored at -20°C • ATP (supplied within the ADP Glo Kit) stored at -20°C • 1M KCI (Sigma Aldrich: P9333) stored at 2-8°C • 1 M HEPES pH 7.5 (Gibco: M15630-080) stored at 2-8°C • 1M MgCl2 (Sigma Aldrich: M1028-100mL) stored at 2-8°C • Tween-20 (Sigma Aldrich: P1379) (10% solution) stored at 2-8°C • 500mM DTT (Sigma Aldrich: 10197777001) stored at -20°C • CAG loop DNA for MutSβ (made in house) stored at -20°C • MilliQ water stored at room temperature
• 1. Prepare the buffer fresh each day • 2. Take the enzyme from the freezer, thaw in room temperature water and centrifuge at 13,000 rpm for 10 minutes at 2-8C, then make up enzyme and ATP stocks • 3. Quality Control the multidrop head to a %CV of <2% • 4. Add 3µL of 33.34nM MutSβ and 50.01nM CAG looped DNA solution […] to each well in columns 1 and 3-23 of the plate • 5. Pre-incubate the MutSβ and buffer mix for 10 minutes with the compounds • 6. Wash the multidrop head through with MilliQ water (for at least 30 seconds) • 7. Add 3µL of MutSβ Assay buffer (without enzyme) to columns 2 and 24 for the vehicle controls • 8. Wash the multidrop head through with MilliQ water (for at least 30 seconds) • 9. Add 2µL of 62.5µM ATP to each well of the whole plate, then wash with MilliQ water (for a minimum of 30 seconds) • 10. Centrifuge plate for 1 minute at 1000 rpm • 11. Incubate for 2 hours at room temperature • 12. Add 5µL of ADP Glo reagent to each well of the whole plate and wash the multidrop head with MilliQ water (for a minimum of 30 seconds) • 13. Incubate for 40 minutes at room temperature (minimum requirement) • 14. Add 10µL of Kinase Detection Reagent to each well of the whole plate • 15. Wash the multidrop head with MilliQ water more than 1 minute and then dry • 16. Remove the head and put the cover back on for overnight storage • 17. Incubate for 30 minutes at room temperature (minimum requirement) • 18. Read on a microplate reader

Molecules are shown by their SMILES. Where only a bound is given, the exact number is not on record here.

T1 sequence (P43246 whole entry): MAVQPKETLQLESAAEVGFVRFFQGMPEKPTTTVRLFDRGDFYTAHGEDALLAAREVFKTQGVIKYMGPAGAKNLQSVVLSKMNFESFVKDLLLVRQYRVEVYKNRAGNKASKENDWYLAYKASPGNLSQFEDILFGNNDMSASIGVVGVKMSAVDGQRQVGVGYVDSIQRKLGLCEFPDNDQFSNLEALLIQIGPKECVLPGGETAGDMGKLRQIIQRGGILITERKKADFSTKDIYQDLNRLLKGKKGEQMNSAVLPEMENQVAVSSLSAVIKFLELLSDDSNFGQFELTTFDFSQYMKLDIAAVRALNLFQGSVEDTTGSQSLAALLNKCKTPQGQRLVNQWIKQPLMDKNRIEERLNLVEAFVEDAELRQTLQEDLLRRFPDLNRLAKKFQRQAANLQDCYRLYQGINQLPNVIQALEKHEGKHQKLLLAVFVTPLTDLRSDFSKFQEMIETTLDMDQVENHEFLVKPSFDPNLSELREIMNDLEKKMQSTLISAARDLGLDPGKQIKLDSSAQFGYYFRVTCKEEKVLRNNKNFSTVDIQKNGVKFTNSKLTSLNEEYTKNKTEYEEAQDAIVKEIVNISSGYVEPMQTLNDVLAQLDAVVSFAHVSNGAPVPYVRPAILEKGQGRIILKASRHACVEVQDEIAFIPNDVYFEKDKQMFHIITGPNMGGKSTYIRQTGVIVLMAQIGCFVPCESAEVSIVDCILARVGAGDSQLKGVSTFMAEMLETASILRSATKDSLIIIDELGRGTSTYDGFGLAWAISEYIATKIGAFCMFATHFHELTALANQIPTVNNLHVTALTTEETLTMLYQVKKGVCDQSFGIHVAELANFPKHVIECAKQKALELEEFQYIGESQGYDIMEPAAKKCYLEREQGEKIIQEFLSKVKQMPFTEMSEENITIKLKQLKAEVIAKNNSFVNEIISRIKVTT
T1 sequence (P20585 whole entry): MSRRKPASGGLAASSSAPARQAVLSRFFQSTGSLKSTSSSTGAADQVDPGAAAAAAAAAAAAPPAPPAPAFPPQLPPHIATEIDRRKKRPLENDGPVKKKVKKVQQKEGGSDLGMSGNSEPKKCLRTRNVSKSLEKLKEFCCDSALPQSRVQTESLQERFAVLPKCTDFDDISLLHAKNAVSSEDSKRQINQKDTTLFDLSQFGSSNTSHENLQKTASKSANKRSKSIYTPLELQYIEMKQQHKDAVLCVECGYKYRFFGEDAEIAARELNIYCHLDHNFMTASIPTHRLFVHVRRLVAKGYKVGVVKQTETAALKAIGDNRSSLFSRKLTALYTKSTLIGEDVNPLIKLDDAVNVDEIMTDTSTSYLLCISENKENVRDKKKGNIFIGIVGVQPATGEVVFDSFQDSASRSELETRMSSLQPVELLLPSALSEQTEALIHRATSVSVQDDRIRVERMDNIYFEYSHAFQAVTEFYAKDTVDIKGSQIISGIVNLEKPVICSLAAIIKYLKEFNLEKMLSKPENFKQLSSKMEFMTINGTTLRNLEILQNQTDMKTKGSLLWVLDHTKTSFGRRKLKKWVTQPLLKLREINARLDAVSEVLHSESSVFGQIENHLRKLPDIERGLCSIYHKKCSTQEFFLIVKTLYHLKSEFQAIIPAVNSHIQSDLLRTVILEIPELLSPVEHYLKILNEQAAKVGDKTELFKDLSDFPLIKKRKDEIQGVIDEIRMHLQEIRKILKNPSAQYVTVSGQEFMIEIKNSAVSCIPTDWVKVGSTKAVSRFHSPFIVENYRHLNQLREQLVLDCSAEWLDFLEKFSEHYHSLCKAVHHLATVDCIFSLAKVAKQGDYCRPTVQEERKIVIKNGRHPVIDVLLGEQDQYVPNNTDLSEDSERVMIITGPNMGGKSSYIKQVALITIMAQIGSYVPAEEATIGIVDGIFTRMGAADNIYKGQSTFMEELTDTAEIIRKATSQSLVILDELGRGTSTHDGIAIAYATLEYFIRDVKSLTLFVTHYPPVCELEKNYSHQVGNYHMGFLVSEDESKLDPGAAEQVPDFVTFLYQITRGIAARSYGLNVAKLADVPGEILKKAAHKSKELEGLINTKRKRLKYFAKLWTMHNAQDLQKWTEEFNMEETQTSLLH

`CNS(=O)(=O)OCC(=O)Nc1nc(COC2CCN(C)CC2)c(Cc2cccc(Cl)c2)s1` [Example 50, 2-((5-(3-chlorobenzyl)-4-(((1-methylpiperidin-4-yl)oxy)methyl)thiazol-2-yl)amino)-2-oxoethyl methylsulfamate] had an IC50 of 10 to 50 µM.
As to `Cc1nc(NC(=O)COS(=O)(=O)N(C)C)sc1Cc1ccccc1` [Example 28, 2-((5-benzyl-4-methylthiazol-2-yl)amino)-2-oxoethyl dimethylsulfamate], the IC50 fell in the range of 1 to 10 µM.
The same measure for `CNS(=O)(=O)OCC(=O)Nc1nc(C(F)(F)F)c(Cc2ccc(C)cc2)s1` [Example 44]: 1 to 10 µM.
As for `CNC(=O)OCc1nc(NC(=O)COS(=O)(=O)NC)sc1Cc1cccc(Cl)c1` [Example 60, 2-((5-(3-chlorobenzyl)-4-(((methylcarbamoyl)oxy)methyl)thiazol-2-yl)amino)-2-oxoethyl methylsulfamate], the concentration for half-maximal inhibition (IC50) fell in the range of 1 to 10 µM.
The same measure for `CNS(=O)(=O)OCC(=O)Nc1nc(CN2CCOCC2)c(Cc2cccc(Cl)c2)s1` [Example 58, 2-((5-(3-chlorobenzyl)-4-(morpholinomethyl)thiazol-2-yl)amino)-2-oxoethyl methylsulfamate]: 10 to 50 µM; for `CNS(=O)(=O)OCC(=O)Nc1nc(C)c(CCc2ccc(Cl)cc2)s1` [Example 38, 2-((5-(4-chlorophenethyl)-4-methylthiazol-2-yl)amino)-2-oxoethyl methylsulfamate]: 10 to 50 µM; for `CNS(=O)(=O)OCC(=O)Nc1nc(C)c(Cc2cccc3ccccc23)s1` [Example 48, 2-((4-methyl-5-(naphthalen-1-ylmethyl)thiazol-2-yl)amino)-2-oxoethyl methylsulfamate]: 10 to 50 µM.
`Cc1ccc(Cc2sc(NC(=O)COS(=O)(=O)N3CCCC3)nc2C)cc1` [Example 31, 2-((4-methyl-5-(4-methylbenzyl)thiazol-2-yl)amino)-2-oxoethyl pyrrolidine-1-sulfonate] yielded an IC50 of 1 to 10 µM.
The result for `CCCNS(=O)(=O)OCC(=O)Nc1nc(C)c(Cc2ccc(C)cc2)s1` [Example 41, 2-((4-methyl-5-(4-methylbenzyl)thiazol-2-yl)amino)-2-oxoethyl propylsulfamate] reads 1 to 10 µM; that for `CNS(=O)(=O)OCC(=O)Nc1nc(C)c(Cc2cccc(C)c2)s1` [Example 24, 2-((4-methyl-5-(3-methylbenzyl)thiazol-2-yl)amino)-2-oxoethyl methylsulfamate], 1 to 10 µM; that for `CNS(=O)(=O)OCC(=O)N(C)c1nc(C)c(Cc2ccc(Cl)c(Cl)c2)s1` [Example 59, 2-((5-(3,4-dichlorobenzyl)-4-methylthiazol-2-yl)(methyl)amino)-2-oxoethyl methylsulfamate], at most 0.5 µM.
The same measure for `CNS(=O)(=O)OCC(=O)Nc1nc(C)c(Cc2ccc3ccccc3c2)s1` [Example 5, 2-((4-methyl-5-(naphthalen-2-ylmethyl)thiazol-2-yl)amino)-2-oxoethyl methylsulfamate]: 1 to 10 µM; for `CNS(=O)(=O)OCC(=O)Nc1nc(C)c(Cc2ccc(F)c(Cl)c2)s1` [Example 7, 2-((5-(3-chloro-4-fluorobenzyl)-4-methylthiazol-2-yl)amino)-2-oxoethyl methylsulfamate]: at most 0.5 µM; for `CNS(=O)(=O)OCC(=O)Nc1nc(C)c(Cc2ccc(C(C)C)cc2)s1` [Example 33, 2-((5-(4-isopropylbenzyl)-4-methylthiazol-2-yl)amino)-2-oxoethyl methylsulfamate]: 10 to 50 µM.
As for `Cc1nc(NC(=O)COS(=O)(=O)NCCF)sc1Cc1cccc(Cl)c1` [Example 49, 2-((5-(3-chlorobenzyl)-4-methylthiazol-2-yl)amino)-2-oxoethyl (2-fluoroethyl)sulfamate], the IC50 was 0.5 to 1 µM.
Turning to `CNS(=O)(=O)OCC(=O)Nc1nc2c(s1)C(c1cccc(Cl)c1)CCC2` (stereo not shown) [Example 62, 2-((7-(3-chlorophenyl)-4,5,6,7-tetrahydrobenzo[d]thiazol-2-yl)amino)-2-oxoethyl methylsulfamate], the IC50 was at most 0.5 µM.

A word on the IC50: it is the concentration that gives 50% inhibition. A lower IC50 goes with inhibition by little substance.

Source of the values: patent EP4574817A1 (LoQus23 Therapeutics Limited, priority 2023, dated 2025).
